# Measured values: patent publication US20240208905A1, “ABIRATERONE DERIVATIVE, PREPARATION AND APPLICATION THEREOF” (GUANGDONG ZHONGKE MEDICINE R&D LTD., priority 2021, published 2024)
# Read-outs that look alike come from different tables or passages of the source.
# Experiments:
# [1] = tested on: human prostate cancer cell VCaP nude mouse transplanted tumor model; assay: Prostate tumor pharmacodynamics experiment: VCaP nude mouse transplanted tumor model; type: in vivo, BALB/c nude mice; settings: for inhibition in vivo at 500 µmol/kg: Mus musculus, VCaP, po, 600 h, read-out: Growth Inhibition rate (GI); for Tumor volume, day 25: n=6, * P<0.05, ** P<0.01 vs solvent control
# Protocol: Male BALB/c nude mice (number: 90; age: 6-7 weeks) purchased from Beijing Vital River Laboratory Animal Technology Co., Ltd., were raised in the SPF animal room of Suzhou Shengsu New Drug Development Co., Ltd. at a temperature of 20˜25° C. and a relative humidity 40%˜70%, and bright and dark illumination for 12 hours respectively; these mice were allowed to drink and eat freely. After normal feeding for about 6 days, mice with good physical signs can be selected for this experiment after veterinary inspection. Before grouping, animals were identified at their base of tail using marking pens. After grouping, each animal was identified by ear clipping.
# Human prostate cancer cells VCaP were obtained from the Shanghai Cell Bank of the Chinese Academy of Sciences (CAS, cryopreserved in liquid nitrogen in our laboratory).
# Under a culture condition of 5% CO2 and 37° C., VCaP cells were routinely cultured in DMEM medium containing 10% fetal bovine serum. Digested with 0.25% trypsin and passaged, VCaP cells were passaged 2-3 times per week based on cell growth, with a passage ratio of 1:3 to 1:5.
# The VCaP cells in logarithmic growth phase were collected, counted, and resuspended in 50% DMEM basal medium and 50% Matrigel Matrix, and the cell concentration was adjust to 5×10^7 cells/mL; the cells was placed in an ice box; Cell suspension was aspirated with a 1 ml syringe, and injected subcutaneously to the anterior right armpit of nude mice. Each animal was inoculated with 200 μL (1×10^7 cells/mouse), and a VCaP transplant tumor model in nude mice was established. Regularly observe the status of mice, measure the diameter of the tumor with an electronic vernier caliper, input the data into Excel spreadsheets, calculate the tumor volume, and monitor its growth. When the tumor volume reached 100-300 mm3, 60 mice with good health and similar tumor volume were selected, and divided into 10 groups (n=6) based on the tumor volume using random block method, while ensuring that the average body weight of each group remained consistent as much as possible. The day of grouping was taken as the first day of the experiment (D1). The tumor diameters were measured twice a week after the initiation of the experiment, the tumor volumes were calculated, and the body weights of the animals were weighed and recorded at the same time.
# Preparation of DMSO&PEG400&PG (v:v:v, 10:60:30): appropriate volumes of DMSO, PEG400 and PG were drawed respectively, and mixed well. The ratio of DMSO, PEG400 and PG in the mixture is 10:60:30 (v:v:v), and this mixture is used as a blank solvent and stored at room temperature.
# Appropriate amount of the test compound was weighed and added into a glass bottle, appropriate volume of solvent DMSO was added, be treated with vortex ultrasonication, then appropriate volumes of PEG400 and PG were added in turn, be vortex mixed to obtain a dosing formulation with a final concentration of 0.05M. The dosing formulation was stored in refrigerator at 2-8° C. after subpackaging, and was stirred evenly with vortex before each administration. The dosing formulation was prepared every 7 days, and was subpackaged and stored in refrigerator at 4° C.
# Appropriate amount of ZONK1901-10 was weighed and added into a glass bottle, appropriate volume of corn oil, was added, be treated with vortex ultrasonication evenly, a dosing formulation with a final concentration of 19.58 mg·mL-1 (0.05 M) was obtained.
# [2] = tested on: experimental rabbit ear acne; assay: Pharmacodynamics evaluation of acne: coal tar rabbit ear acne model, HE pathology; type: in vivo, Japanese big-ear white rabbits; settings: 0.01% ointment, 1 g per animal, once a day, two weeks, 10 rabbits per group; for Degree of keratinization: number of rabbits graded + / Degree of keratinization: number of rabbits graded ++ / Degree of keratinization: number of rabbits graded +++ / Degree of keratinization: number of rabbits graded −: hair follicle keratinization
# Source text: There are 140 male healthy Japanese big-ear white rabbits, weighing 2.0-2.5 kg. After one week of adaptive rearing, 10 rabbits were randomly selected according to their body weights as the normal control group, and the remaining 130 rabbits were coated with coal tar once a day in the area of 2×2 cm2 at 2 cm outside the opening of ear canal, with a thickness of about 0.5 mm (Before coating, the coal tar was heated to melt in a water bath, and the last coal tar shell was removed before each application; the rabbits in normal control group were coated with olive oil by the same method as before). After 3 weeks for modeling, according to the degree of skin lesion, 130 rabbits were randomly divided into 13 groups which is model control group, Example 1 compound (1 group), Example 2 compound (2 groups), Example 3 compound (3 groups), Example 4 (4 groups), Example 5 (5 groups), Example 6 (6 groups), Example 7 (7 groups), Example 8 (8 groups), Example 9 (9 groups), Example 10 (10 groups), Example 11 (11 groups), Example 12 (12 groups), Example 13 (13 groups), and each group had 10 rabbits. After grouping, each dose group were continued to be coated coal tar in the morning, and after the coal tar was removed in the afternoon, apply the test drug or control drug (both 0.01%/10 g ointment, apply 1 g ointment per animal) on the lesion, once a day, for two consecutive weeks (the model control group and the normal control group were coated with the same amount of matrix). 24 hours after the last administration, the animals were sacrificed by air embolism, and the skin (full thickness) of the ear where the administration was administered was taken, fixed with 4% paraformaldehyde solution, stained with HE, and routinely observed for pathology.1.
# [3] = day 25, 0.5 mmol·kg−1 i.g. QD, vs solvent control
SMILES,"inhibition in vivo at 500 µmol/kg [1, 3] [%]","Tumor volume, day 25 ([1]; day 25, 0.5 mmol·kg−1 i.g. QD)",degree of inflammatory cell infiltration: number of rabbits graded + [2],degree of inflammatory cell infiltration: number of rabbits graded ++ [2],degree of inflammatory cell infiltration: number of rabbits graded +++ [2],degree of inflammatory cell infiltration: number of rabbits graded − [2],Degree of keratinization: number of rabbits graded + [2],Degree of keratinization: number of rabbits graded ++ [2],Degree of keratinization: number of rabbits graded +++ [2],Degree of keratinization: number of rabbits graded − [2],inhibition in vivo at 500 µmol/kg [1] [%]
"CN(C)CCNC(=O)ON=C1C=C2CC[C@H]3[C@H](CC[C@]4(C)C(c5cccnc5)=CC[C@@H]34)[C@@]2(C)CC1 [Example 1, (8S,9S,10R,13S,14S)-10, 13-Dimethyl-17-(pyridin-3-yl) -6,7,8,9,10,11,12,13,14,15-decahydro-1H-cyclopenteno[a]phenanthrene-3(2H)-one O-((2-(dimethylamino)ethyl)carbamoyl)oxime]",82.2,384 ± 32 ** mm3,5,3,2,0,6,4,0,0,–
"CN(C)C(=O)ON=C1C=C2CC[C@H]3[C@H](CC[C@]4(C)C(c5cccnc5)=CC[C@@H]34)[C@@]2(C)CC1 [Example 2, (8S,9S,10R,13S,14S)-10,13-Dimethyl-17-(pyridin-3-yl) 6,7,8,9,10,11,12,13,14,15-decahydro-1H-cyclopenta[a]phenanthrene-3(2H)-one O-dimethylcarbamoyl oxime]",81.4,393 ± 25 ** mm3,4,4,2,0,5,5,0,0,–
"C[C@]12CCC(=NOC(=O)N(CCCl)CCCl)C=C1CC[C@H]1[C@@H]2CC[C@]2(C)C(c3cccnc3)=CC[C@@H]12 [Example 3, (8S,9S,10R,13S,14S)-10,13-Dimethyl-17-(pyridin-3-yl) -6,7,8,9,10,11,12,13,14,15-decahydro-1H-cyclopenta[a]phenanthrenyl-3(2H)-one O-(bis(2-chloroethyl)carbamoyl)oxime]",–,478 ± 64 ** mm3,5,4,1,0,6,4,0,0,71.2
"CC(=O)ON=C1C=C2CC[C@H]3[C@H](CC[C@]4(C)C(c5cccnc5)=CC[C@@H]34)[C@@]2(C)CC1 [Example 7, (8S,9S,10R,13S,14S)-10,13-Dimethyl-17-(pyridin-3-yl) -6,7,8,9,10,11,12,13,14,15-decahydro-1H-cyclopenta[a]phenanthrenyl-3(2H)-one O-acetyloxime]",–,–,5,3,2,0,6,4,0,0,–
"CC(C)C(=O)OCOC(=O)ON=C1C=C2CC[C@H]3[C@H](CC[C@]4(C)C(c5cccnc5)=CC[C@@H]34)[C@@]2(C)CC1 [Example 8, ((((((8S,9S,10R,13S,14S)-10,13-dimethyl-17-(pyridin-3-yl) -7,8,9,11,12,13,14,15-octahydro-1H-cyclopenta[a]phenanthrenyl-3(2H,6H,10H) -ylidene)amino)oxy)carbonyl)oxy)methyl isobutyrate]",–,–,4,4,2,0,5,5,0,0,–
C[C@]12CCC(=NOC(=O)OCCN3CCOCC3)C=C1CC[C@H]1[C@@H]2CC[C@]2(C)C(c3cccnc3)=CC[C@@H]12 [Example 9],–,–,5,4,1,0,6,4,0,0,–
"C[C@]12CCC(=NOC(=O)C3CCNCC3)C=C1CC[C@H]1[C@@H]2CC[C@]2(C)C(c3cccnc3)=CC[C@@H]12 [Example 10, (8S,9S,10R,13S,14S)-10,13-Dimethyl-17-(pyridin-3-yl) -6,7,8,9,10,11,12,13,14,15-decahydro-1H-cyclopenta[a]phenanthrenyl-3(2H)-one O-piperidine-4-carbonyl oxime]",–,–,5,3,2,0,6,3,0,1,–
"CN1CCC(C(=O)ON=C2C=C3CC[C@H]4[C@H](CC[C@]5(C)C(c6cccnc6)=CC[C@@H]45)[C@@]3(C)CC2)CC1 [Example 11, (8S,9S,10R,13S,14S)-10,13-Dimethyl-17-(pyridin-3-yl) -6,7,8,9,10,11,12,13,14,15-decahydro-1H-cyclopenta[a]phenanthrenyl-3(2H)-one O-(1-methylpiperidine-4-carbonyl)oxime]",–,–,6,3,1,0,7,3,0,0,–
"CC(=O)N1CCC(C(=O)ON=C2C=C3CC[C@H]4[C@H](CC[C@]5(C)C(c6cccnc6)=CC[C@@H]45)[C@@]3(C)CC2)CC1 [Example 12, 1-(4-(((((8S,9S,10R,13S,14S)-10,13-dimethyl-17-(pyridin-3-yl) -7,8,9,11,12,13,14,15-octahydro-1H-cyclopenteno[a]phenanthrenyl-3(2H,6H, 10H) -ylidene)amino)oxy)carbonyl)piperidin-1-yl)ethanone]",–,–,5,4,1,0,5,5,0,0,–
"CN(C)CCN1CCC(C(=O)ON=C2C=C3CC[C@H]4[C@H](CC[C@]5(C)C(c6cccnc6)=CC[C@@H]45)[C@@]3(C)CC2)CC1 [Example 13, (8S,9S,10R,13S,14S)-10,13-Dimethyl-17-(pyridin-3-yl) -6,7,8,9,10,11,12,13,14,15-decahydro-1H-cyclopenta[a]phenanthrenyl-3(2H)-one O-(1-(2-(dimethylamino)ethyl)piperidine-4-carbonyl)oxime]",–,–,6,3,1,0,4,6,0,0,–
CC(=O)ON=C1C=C2CC[C@H]3[C@H](CC[C@]4(C)C(c5cccnc5)=CC[C@@H]34)[C@@]2(C)CC1 [H],69.3,–,–,–,–,–,–,–,–,–,–
"CCC(=O)O/N=C1/C=C2CC[C@H]3[C@H](CC[C@]4(C)C(c5cccnc5)=CC[C@@H]34)[C@@]2(C)CC1 [ZONK1901-19, reference compound]",38.7,790 ± 49 * mm3,–,–,–,–,–,–,–,–,–
